Data reported in PubChem BioAssay (NCI).
Several values for one entry are separate records, joined by “and”; a condition that tells them apart may be missing. Identical values can stand only once.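 Cultured in 96-well plates, cells were exposed to test compound for 48 hours across five concentrations. At the GI50, growth is halved. TGI: concentration producing complete growth inhibition.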

Assays:
Assay in all cases: NCI tumour cell line growth inhibition, 48 h
[1] = test system: NCI-H23 lung
[2] = test system: UO-31 renal
[3] = test system: HT29 colon
[4] = test system: U251 CNS
[5] = test system: COLO 205 colon
[6] = test system: T-47D breast
[7] = test system: OVCAR-4 ovarian
[8] = test system: NCI-H226 lung
[9] = test system: HL-60(TB) leukemia
[10] = test system: SK-OV-3 ovarian

O=C(/C=C/c1ccco1)c1ccc(Nc2nc(Nc3ccc(F)cc3)nc(Nc3ccc(F)cc3)n2)cc1
GI50 [1]: 16.4 µM | TGI [1]: 37 µM | GI50 [2]: 14.7 µM | TGI [2]: 37.2 µM | GI50 [3]: 18.1 µM | TGI [3]: > 100 µM | GI50 [4]: 21.6 µM | TGI [4]: 42.2 µM | GI50 [5]: 7.04 µM | TGI [5]: 26.1 µM | GI50 [6]: 11.4 µM | TGI [6]: 59.8 µM | GI50 [7]: 8.99 µM | TGI [7]: 36.2 µM | GI50 [8]: 53.3 µM | TGI [8]: > 100 µM | GI50 [9]: 17.5 µM | TGI [9]: 52.9 µM | GI50 [10]: 32 µM | TGI [10]: > 100 µM

COc1cccc2c1cc1c3c(cc4c(c32)OCO4)C(=O)N1
GI50 [1]: 3.45 µM | TGI [1]: 13.4 µM | GI50 [2]: 3.47 µM | TGI [2]: 28.9 µM | GI50 [3]: 5.02 µM | TGI [3]: 73 µM | GI50 [4]: 5.78 µM | TGI [4]: 21.1 µM | GI50 [5]: 2.3 µM | TGI [5]: 5.39 µM | GI50 [6]: 2.33 µM | TGI [6]: 6.81 µM | GI50 [7]: 2.61 µM | TGI [7]: 7.26 µM | GI50 [8]: 5.8 µM | TGI [8]: 54 µM | GI50 [9]: 7.59 µM | TGI [9]: 27.8 µM | GI50 [10]: 13.6 µM | TGI [10]: 48.9 µM

COc1cc(-c2cc(=O)c3c(O)c(OC)c(OC)c(OC)c3o2)cc(OC)c1OC
TGI [1]: > 62.5 µM | TGI [2]: > 100 µM | TGI [3]: > 100 µM | TGI [4]: > 22.2 µM | TGI [5]: > 100 µM | TGI [6]: > 74.3 µM | TGI [7]: > 100 µM | TGI [8]: > 80.1 µM | TGI [9]: > 100 µM | TGI [10]: 26 µM

Cn1cc(-c2nc(N[C@@H]3CCCC[C@@H]3N)c(F)c3c2C(=O)NC3)cn1
GI50 [1]: 5.58 µM and 5.83 µM | TGI [1]: 48.7 µM and > 63.7 µM | GI50 [2]: 5.74 µM and 7.49 µM | TGI [2]: 19.7 µM and 21.1 µM | GI50 [3]: 4.33 µM and 5.99 µM | TGI [3]: 81.5 µM and > 94.4 µM | GI50 [4]: 15.3 µM | TGI [4]: 33.9 µM and 36.3 µM | GI50 [5]: 1.41 µM and 1.63 µM | TGI [5]: 3.99 µM and 4.13 µM | GI50 [6]: 24.8 µM and 33.7 µM | TGI [6]: 77.3 µM and > 96.6 µM | GI50 [7]: 15.4 µM and 19.6 µM | TGI [7]: > 100 µM | GI50 [8]: 2.93 µM and 3.83 µM | TGI [8]: 23.9 µM and 49.7 µM | GI50 [9]: 9.21 µM and 11.2 µM | TGI [9]: 37 µM and 40.9 µM | GI50 [10]: 4.06 µM and 3.77 µM | TGI [10]: 40.1 µM and 43.8 µM

COc1ccc(C2=Nc3c/c(=C\c4c(O)[nH]c5cc(Cl)ccc45)ccc3=N2)cc1
GI50 [1]: 10.2 µM | TGI [1]: 24.2 µM | GI50 [2]: 10.2 µM | TGI [2]: 26.7 µM | GI50 [3]: 3.06 µM | TGI [3]: 11.4 µM | GI50 [4]: 2.08 µM | TGI [4]: 5.64 µM | GI50 [5]: 7.19 µM | TGI [5]: 21 µM | GI50 [6]: 10.7 µM | TGI [6]: 29.8 µM | GI50 [7]: 3.22 µM | TGI [7]: 13.6 µM | GI50 [8]: > 100 µM | TGI [8]: > 100 µM | GI50 [9]: 1.97 µM | TGI [9]: 4.84 µM | GI50 [10]: 12.4 µM | TGI [10]: 30.5 µM

CN(C(=O)CNC(=O)/C=C/c1cccc(Cl)c1)C1CCS(=O)(=O)CC1
GI50 [2]: 47 µM | TGI [2]: > 100 µM | GI50 [3]: 0.889 µM | TGI [3]: > 100 µM | GI50 [4]: 39.5 µM | TGI [4]: > 100 µM | GI50 [5]: 1.1 µM | TGI [5]: > 100 µM | GI50 [6]: 7.36 µM | TGI [6]: > 100 µM | GI50 [7]: 5.9 µM | TGI [7]: > 100 µM | GI50 [8]: 1.02 µM | TGI [8]: > 100 µM | GI50 [9]: 2.07 µM | TGI [9]: > 100 µM | GI50 [10]: 18.2 µM | TGI [10]: > 100 µM
